According to US20250304578A1, “NITROGEN-CONTAINING FUSED HETEROCYCLIC COMPOUNDS OF N-SULFONAMIDE AND USE THEREOF” (NUTSHELL THERAPEUTICS (SHANGHAI) CO., LTD., priority 2023, published 2025):
Where two headings read alike, the source gives them in different places.

Columns and labels:
NUGC-3 cells = experiment: Anti-proliferation effect on NUGC-3 cells (Cell Counting Kit-8); assay type: cell-based; settings: Homo sapiens, NUGC-3, 120 h; 5 days of treatment
Procedure: Cell line NUGC-3 (JCRB, JCRB0822) was cultured in RPMI 1640 (Invitrogen, 11875-085) medium supplemented with 10% (v/v) fetal bovine serum (BI, 04-002-1A), according to the standard instructions of the American Type Culture Collection. The cell line was authenticated by short tandem repeat profiling.
In the proliferation assay, 1000 NUGC-3 cells were seeded in a 96-well flat clear bottom, TC-treated plate (Corning, 3903) in 200 μL of medium per well, and allowed to recover overnight in culture medium. Compounds were added with increasing concentration, with DMSO treatment serving as a […] control. After 5 days of treatment, the plate was equilibrated to room temperature for 30 minutes, and the number of living cells was measured by the addition of the Cell Counting Kit-8 reagent (MCE, HY-K0301). Absorbance was measured on an Enspire (Perkin elme). The relative viability of each group was presented as the percentage change relative to the […] control group and then fit to a four-parameter logit non-linear curve using the program XLFit (IDBS)

[1] = Metabolic stability test in hepatocytes; assay type: in vitro ADME; settings: for hepatocyte CLint at 1 μM: read-out: In vitro Clint (μL/min/10^6 cells); for half-life at 1 μM: read-out: In vitro t1/2
Procedure: The test compound and the control drug verapamil powder were prepared into a high concentration stock solution using DMSO, and diluted to a 100 μM working solution with 50% acetonitrile/water before use, with final concentrations of 1 μM for the test compound and verapamil.
• 1) 49.5 mL of Williams' Medium E and 0.5 mL GlutaMAX were mixed as the incubation solution. The hepatocyte recovery solution and the incubation solution were pre-warmed in a 37° C. water bath for at least 15 minutes prior to use. • 2) A tube of cryopreserved hepatocytes was taken, ensuring that the hepatocytes were still in a cryogenic frozen state prior to resuscitation. The hepatocytes were quickly placed in a 37° C. water bath and gently shaken until all ice crystals were completely dispersed, sprayed with 70% ethanol and transferred to a biosafety cabinet. • 3) The contents of the hepatocyte tube were poured into a centrifuge tube containing 50 mL of recovery medium, which were centrifuged at 100 g for 10 minutes. After centrifugation, the recovery medium was aspirated, and sufficient incubation medium was added to obtain a cell suspension having a cell density of approximately 1.5×10^6 cells/mL. • 4) Cellometer Vision was used to count hepatocytes and determine the density of viable cells. The survival rate of hepatocytes must be greater than 75%. The hepatocyte suspension was diluted with incubation medium to a viable cell density of 0.5×10^6 cells/mL. • 5) A portion of hepatocyte suspension with a density of 0.5×10^6 cells/mL was boiled in water for 5 minutes to inactivate as a negative control. After cells were inactivated, substrate conversion mediated by non-cellular enzymes could be easily investigated.
• 1) 198 μL of the suspension of live or inactivated cells was transferred to a 96-well deep-well plate, which was then placed on a vortexer and preheated in an incubator for 10 minutes. Live cells were incubated in duplicate, while inactivated cells were incubated in single. • 2) 2 μL of 100 μM test compound or verapamil was added to each well for the reaction initiation, and the deep-well plate was placed back on the incubator vortexer. • 3) 25 μL of the suspension were taken from the incubated samples at 0, 15, 30, 60, 90, and 120 minutes, respectively, and added to 150 μL of acetonitrile containing internal standards (200 nM alprazolam, 200 nM labetalol, 2 μM ketoprofen, and 200 nM caffeine) to terminate the reaction. The mixture was vortexed for 10 minutes and centrifuged at 3220 g and 4° C. for 30 minutes. After centrifugation was completed, 100 μL of the supernatant and 100 μL of ultra-pure water were mixed well for UPLC-MS/MS analysis detection.
All data calculations were performed using Microsoft Excel software. Peak areas were detected by extracting the ion chromatogram. The in vitro half-life (t1/2) of the parent drug was detected by linear fitting of the natural logarithm of the percentage of parent drug […] with time.
The in vitro half-life (t1/2) was calculated by the slope: […]
In vitro intrinsic clearance (unit μL/min/10^6 cells) was calculated using the following formula:
[formula] • V=incubation volume per well (0.2 mL); • N=number of cells per well (0.1×10^6 cells)

CYP3A4/5 = experiment: Multi-concentration inhibitory activity curve of CYP3A4/5 enzymes; assay type: in vitro ADME; settings: pH 7.4, probe testosterone; human liver microsomes; substrate testosterone; read-out: CYP3A4/5 IC50 (μM) (Testosterone)
Procedure: The buffer was filtered through a 0.45 μm filter.
Liver microsome working solution (final system concentration of 0.5 mg/mL) was prepared. […] The above stock solution was diluted with acetonitrile (4-fold dilution, 6 non-zero concentrations).
The half-maximal inhibitory concentration (IC50) was calculated using Graph Pad Prism.

[2] = Metabolic stability in liver microsomes; assay type: in vitro ADME; settings: for microsomal CLint at 1 μM: read-out: In vitro Clint (μL/min/mg protein); for half-life at 1 μM: read-out: In vitro t1/2
Procedure: The test compound and the positive control compound (dextromethorphan as a control compound) were dissolved respectively in DMSO to prepare a stock solution with a concentration of 10 mM, and the above stock solution was diluted into 200 μM working solution with DMSO. 8.709 g of potassium hydrogen phosphate (K2HPO4) was dissolved in 950 mL of water, and the pH value of the solution was adjusted to 7.4 with hydrochloric acid, and then the volume was adjusted to 1000 mL with water. After filtration using a 0.22 μm filter membrane, the mixture was stored in a 4° C. refrigerator for later use. After liver microsomes of various species (protein concentration of 20 mg/mL) were thawed in a 37° C. water bath, the liver microsomes were diluted with a phosphate buffer respectively to obtain a liver microsome working solution with protein concentration of 0.629 mg/mL. 5 mM NADPH solution was prepared using the above phosphate buffer for later use. 1 mg/mL stock solution of terfenadine/tolbutamide was prepared with DMSO and then diluted with a 50% methanol/50% acetonitrile mixed solution to a reaction stop solution containing 5/10 ng/mL (terfenadine/tolbutamide) internal standard.
238.5 μL of liver microsome working solutions of various species were added to a 1.1 mL microtube, and 1.5 μL of the test compound working solution or the positive control compound (dextromethorphan) working solution (200 μM) was added respectively, mixed well, and pre-incubated in a 37° C. water bath for 5 minutes. 60 μL of NADPH solution was added to start the reaction, and after mixing well, at the time points of 0, 5, 15, 30, and 60 minutes after the reaction, 30 μL of the reaction mixture was respectively pipetted and added to 300 μL of the reaction stop solution. Samples from all time points were vortexed vigorously for 1 minute and centrifuged at 4000 rpm for 15 minutes at 4° C. 100 μL of the supernatant was added to 100 μL of pure water and mixed well for LC-MS/MS analysis.
The slope (ke) was determined by plotting the natural logarithm of the percentage of compound remaining against time, and the Tin and intrinsic clearance (CLint) were calculated based on the first-order kinetic formula: […]
The compound remaining rate is calculated as follows:
Intrinsic clearance CLint (μL/min/mg protein)=0.693*1000/T1/2/protein concentration (0.5 mg protein/mL)

[3] = cryopreserved hepatocytes, Human hepatocytes
[4] = cryopreserved hepatocytes, Mouse hepatocytes
[5] = cryopreserved hepatocytes, Rat hepatocytes
[6] = ICR/CD-1, pH 7.4, Mouse liver microsomes
[7] = Sprague Dawley, pH 7.4, Rat liver microsomes
[8] = cryopreserved hepatocytes in suspension, Human hepatocytes
[9] = cryopreserved hepatocytes in suspension, Mouse hepatocytes
[10] = cryopreserved hepatocytes in suspension, Rat hepatocytes

Compound: [2H]C([2H])([2H])Oc1nc(C(=O)NS(=O)(=O)C2CC2)ccc1NCC#Cc1cc2c(N[C@@H]3CCN(C)C[C@@H]3F)cccn2c1CC(F)(F)F [Cpd-4, N-(Cyclopropylsulfonyl)-5-((3-(8-(((3S,4R)-3-fluoro-1-methylpiperidin-4-yl)amino)-3-(2,2,2-trifluoroethyl)indolizin-2-yl)prop-2-yn-1-yl)amino)-6-(methoxy-d3)picolinamide]
- IC50 (NUGC-3 cells): 97 nM

Compound: [2H]C([2H])([2H])Oc1nc(C(=O)NS(=O)(=O)CC2CC2)ccc1NCC#Cc1cc2c(N[C@@H]3CCN(C)C[C@@H]3F)cccn2c1CC(F)(F)F [Cpd-5, N-((Cyclopropylmethyl)sulfonyl)-5-((3-(8-(((3S,4R)-3-fluoro-1-methylpiperidin-4-yl)amino)-3-(2,2,2-trifluoroethyl)indolizin-2-yl)prop-2-yn-1-yl)amino)-6-(methoxy-d3)picolinamide]
- IC50 (NUGC-3 cells): 81 nM

Compound: [2H]C([2H])([2H])Oc1nc(C(=O)NS(=O)(=O)CC(F)(F)F)ccc1NCC#Cc1cc2c(N[C@@H]3CCN(C)C[C@@H]3F)cccn2c1CC(F)(F)F [Cpd-6, 5-((3-(8-(((3S,4R)-3-Fluoro-1-methylpiperidin-4-yl)amino)-3-(2,2,2-trifluoroethyl)indolizin-2-yl)prop-2-yn-1-yl)amino)-6-(methoxy-d3)-N-((2,2,2-trifluoroethyl)sulfonyl)picolinamide]
- IC50 (NUGC-3 cells): 190 nM

Compound: COc1nc(C(=O)NS(=O)(=O)C2CC2)ccc1NCC#Cc1cc2c(N[C@@H]3CCN(C)C[C@@H]3F)cccn2c1CC(F)(F)F [Cpd-7, N-(Cyclopropylsulfonyl)-5-((3-(8-(((3S,4R)-3-fluoro-1-methylpiperidin-4-yl)amino)-3-(2,2,2-trifluoroethyl)indolizin-2-yl)prop-2-yn-1-yl)amino)-6-methoxypicolinamide]
- IC50 (NUGC-3 cells): 70 nM

Compound: [2H]C([2H])([2H])Oc1nc(C(=O)NS(C)(=O)=O)ccc1NCC#Cc1cc2c(N[C@H]3CCN(C)C[C@H]3F)cccn2c1CC(F)(F)F [Cpd-8, 5-((3-(8-(((3R,4S)-3-Fluoro-1-methylpiperidin-4-yl)amino)-3-(2,2,2-trifluoroethyl)indolizin-2-yl)prop-2-yn-1-yl)amino)-6-(methoxy-d3)-N-(methylsulfonyl)picolinamide]
- IC50 (NUGC-3 cells): 340 nM

Compound: [2H]C([2H])([2H])Oc1nc(C(=O)NS(C)(=O)=O)ccc1NCC#Cc1cc2c(N[C@H]3CCN(C)C[C@@H]3F)cccn2c1CC(F)(F)F [Cpd-9, 5-((3-(8-(((3S,4S)-3-Fluoro-1-methylpiperidin-4-yl)amino)-3-(2,2,2-trifluoroethyl)indolizin-2-yl)prop-2-yn-1-yl)amino)-6-(methoxy-d3)-N-(methylsulfonyl)picolinamide]
- IC50 (NUGC-3 cells): 550 nM

Compound: [2H]C([2H])([2H])Oc1nc(C(=O)NS(C)(=O)=O)ccc1NCC#Cc1cc2c(N[C@@H]3CCN(C)C[C@H]3F)cccn2c1CC(F)(F)F [Cpd-10, 5-((3-(8-(((3R,4R)-3-Fluoro-1-methylpiperidin-4-yl)amino)-3-(2,2,2-trifluoroethyl)indolizin-2-yl)prop-2-yn-1-yl)amino)-6-(methoxy-d3)-N-(methylsulfonyl)picolinamide]
- IC50 (NUGC-3 cells): 900 nM

Compound: COc1cc(S(C)(=O)=O)ccc1NCC#Cc1nc2c(N[C@@H]3CCN(C)C[C@@H]3F)cccn2c1CC(F)(F)F [Cpd-B, reference compound]
- hepatocyte CLint at 1 μM [1, 3]: 16.8 µL/min/1e6 cells
- half-life at 1 μM [1, 3]: 82 min
- hepatocyte CLint at 1 μM [1, 4]: 198 µL/min/1e6 cells
- half-life at 1 μM [1, 4]: 7 min
- hepatocyte CLint at 1 μM [1, 5]: 63.8 µL/min/1e6 cells
- half-life at 1 μM [1, 5]: 22 min
- IC50 at 10 min (CYP3A4/5): 3.2 µM

Compound: CNC(=O)c1ccc(NCC#Cc2cc3c(N[C@@H]4CCN(C)C[C@@H]4F)cccn3c2CC(F)(F)F)c(OC)c1 [Cpd-C, 4-((3-(8-(((3S,4R)-3-Fluoro-1-methylpiperidin-4-yl)amino)-3-(2,2,2-trifluoroethyl)indolizin-2-yl)prop-2-yn-1-yl)amino)-3-methoxy-N-methylbenzamide, reference compound]
- microsomal CLint at 1 μM [2, 6]: 83.9 µL/min/mg
- half-life at 1 μM [2, 6]: 17 min
- microsomal CLint at 1 μM [2, 7]: 61.5 µL/min/mg
- half-life at 1 μM [2, 7]: 23 min
- microsomal CLint at 1 μM ([2]; pH 7.4, Human liver microsomes): 28.3 µL/min/mg
- half-life at 1 μM ([2]; pH 7.4, Human liver microsomes): 49 min
- hepatocyte CLint at 1 μM [1, 8]: 18.4 µL/min/1e6 cells
- half-life at 1 μM [1, 8]: 75 min
- hepatocyte CLint at 1 μM [1, 9]: 31.8 µL/min/1e6 cells
- half-life at 1 μM [1, 9]: 44 min
- hepatocyte CLint at 1 μM [1, 10]: 15.7 µL/min/1e6 cells
- half-life at 1 μM [1, 10]: 88 min
